# ChEMBL document CHEMBL1201862, “PubChem BioAssay data set” (2004)
# Activity calls are given as the source filed them. For most assays here, no stated cut-off is given here; in the data, actives have a measured EC50 and inactives only a lower limit.
# What was measured:
# [1] = test system: Streptococcus sp. 'group A'; assay: Streptococcus pyogenes SK(-)GAS viability under kanamycin – luminescence, BacTiterGlo, confirmation, counter-screen for streptokinase expression inhibitor project, dose response (AID 1900); format: functional, organism-based
# Streptococcus = assay: GAS UMAA2166 growth inhibition – luminescence, BacTiterGlo, counter-screen for streptokinase expression inhibitor project, dose response (AID 1915); format: functional, organism-based;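 further: potency for reduction of bacterial viability or growth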
# [2] = Trypanosoma cruzi growth suppression in host cells – NIH3T3 host cells, beta-gal luminescence, confirmation (AID 2044); format: functional, cell-based;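 further: intracellular parasites grown in NIH/3T3 mouse fibroblasts as host cells; luminescent beta-galactosidase reporter signal from transgenic T. cruzi replicating inside host cells; inhibitors lower the luminescence signal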
# Streptokinase A = target: T1, Streptokinase A (Streptococcus pyogenes serotype M1, UniProt P10520); assay: viability-normalized secreted streptokinase activity reduction – plasminogen activation absorbance, OD405, dose response (AID 1914); format: functional, Streptococcus pyogenes M1 GAS;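 further: secreted streptokinase activity via plasminogen activation per viability signal from cell pellet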
# T1 sequence (P10520 whole entry): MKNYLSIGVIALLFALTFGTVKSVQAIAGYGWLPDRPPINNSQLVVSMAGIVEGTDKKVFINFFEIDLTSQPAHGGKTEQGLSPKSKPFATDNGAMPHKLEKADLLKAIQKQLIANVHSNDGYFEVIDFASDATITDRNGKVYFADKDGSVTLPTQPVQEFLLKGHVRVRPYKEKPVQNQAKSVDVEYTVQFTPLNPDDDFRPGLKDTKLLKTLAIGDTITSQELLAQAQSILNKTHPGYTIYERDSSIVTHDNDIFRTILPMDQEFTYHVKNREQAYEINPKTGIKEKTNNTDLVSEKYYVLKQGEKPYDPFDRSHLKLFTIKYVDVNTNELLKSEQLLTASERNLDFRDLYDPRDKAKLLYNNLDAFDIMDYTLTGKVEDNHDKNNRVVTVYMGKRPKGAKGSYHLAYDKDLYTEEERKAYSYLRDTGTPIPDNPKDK
# [3] = NIH3T3 cell viability loss – ATP luminescence, mouse fibroblasts, counter-screen, dose response (AID 2010); format: functional, cell-based;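 further: cells exposed to compound for about 90 hours before reading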
# [4] = target: T2, Corticotropin-releasing factor receptor 2/Corticotropin-releasing factor-binding protein (Homo sapiens, UniProt P24387+Q13324); assay: activators of CRF receptor 2 with binding protein – uHTS hits, confirmation (AID 602473); format: functional; conditions: read-out: EC50_Mean
# T2 sequence (Q13324 whole entry): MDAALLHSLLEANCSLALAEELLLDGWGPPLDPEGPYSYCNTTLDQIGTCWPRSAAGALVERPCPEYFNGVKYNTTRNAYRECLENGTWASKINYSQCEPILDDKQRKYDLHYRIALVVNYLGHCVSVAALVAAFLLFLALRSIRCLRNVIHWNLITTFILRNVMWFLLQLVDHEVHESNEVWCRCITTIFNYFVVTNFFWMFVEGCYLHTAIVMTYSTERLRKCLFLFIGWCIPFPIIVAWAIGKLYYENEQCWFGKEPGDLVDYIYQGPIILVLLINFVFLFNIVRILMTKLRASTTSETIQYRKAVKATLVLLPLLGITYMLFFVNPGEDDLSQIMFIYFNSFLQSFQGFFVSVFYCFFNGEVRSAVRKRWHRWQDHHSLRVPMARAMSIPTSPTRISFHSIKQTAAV
# T2 sequence (P24387 whole entry): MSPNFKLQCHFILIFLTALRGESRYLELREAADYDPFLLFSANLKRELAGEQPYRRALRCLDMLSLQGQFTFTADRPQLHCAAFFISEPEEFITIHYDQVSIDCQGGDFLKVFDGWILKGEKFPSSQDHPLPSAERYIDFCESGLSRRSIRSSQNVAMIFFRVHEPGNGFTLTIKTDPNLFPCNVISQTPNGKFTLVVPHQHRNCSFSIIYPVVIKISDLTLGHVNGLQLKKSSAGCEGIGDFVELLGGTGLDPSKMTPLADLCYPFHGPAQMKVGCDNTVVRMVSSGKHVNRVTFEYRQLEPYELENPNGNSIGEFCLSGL
# cells = format: functional
# [5] = target: T2, Corticotropin-releasing factor receptor 2/Corticotropin-releasing factor-binding protein; assay: Dose Response confirmation of uHTS hits for small molecule antagonists of the CRF-binding protein and CRF-R2 receptor complex.; format: functional; conditions: read-out: IC50_Mean
# [6] = viability of HCT116 lacking mutant beta-catenin – cell-based, human colon tumor, dose response (AID 1045); format: functional;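 further: HCT116 colon tumor cells with beta catenin knocked out; cells exposed to compound for 60 hours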
# [7] = viability of PTEN-deleted HCT116 cells – cell-based, HCT116 PTEN knockout, dose response (AID 1047); format: functional;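 further: HCT116 colon tumor cells with PTEN knocked out; cells exposed to compound for 60 hours before readout; potency for loss of cell viability measured by luminescence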
# INS1 = assay: INS-1E survival protection against cytokine death – cell-based, luminescence, retest, dose response (AID 449756); format: functional; conditions: Rattus norvegicus;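 further: cell death triggered by IL-1 beta plus TNF-alpha plus IFN-gamma mixture; protective hits raise ATP signal compared with cytokine alone wells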
# [8] = fluconazole-exposed Candida albicans growth modulators – fluorescence, retest, confirmation (AID 2467); format: functional, cell-based
# [9] = NIH-3T3 fibroblast cytotoxicity, dose response, cytotoxicity control, cell-based, fluorescence, Alamar Blue, secondary assay (AID 2327); format: functional;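 further: NIH-3T3 mouse fibroblasts cultured with fluconazole at 8 µg/mL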
# [10] = target: T3, Heat shock factor protein 1 (Mus musculus, UniProt P38532); assay: enhancement of HSF1-driven luciferase signal – cell-based, NIH3T3, luminescence, dose retest, confirmation (AID 435004); format: functional;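 further: stress induced by proteasome inhibitor MG132 added 30 min after compound; luciferase reporter driven by HSF1 response element in NIH3T3 cells; actives raise luminescence as potentiators of the MG132 stress response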
# T3 sequence (P38532 whole entry): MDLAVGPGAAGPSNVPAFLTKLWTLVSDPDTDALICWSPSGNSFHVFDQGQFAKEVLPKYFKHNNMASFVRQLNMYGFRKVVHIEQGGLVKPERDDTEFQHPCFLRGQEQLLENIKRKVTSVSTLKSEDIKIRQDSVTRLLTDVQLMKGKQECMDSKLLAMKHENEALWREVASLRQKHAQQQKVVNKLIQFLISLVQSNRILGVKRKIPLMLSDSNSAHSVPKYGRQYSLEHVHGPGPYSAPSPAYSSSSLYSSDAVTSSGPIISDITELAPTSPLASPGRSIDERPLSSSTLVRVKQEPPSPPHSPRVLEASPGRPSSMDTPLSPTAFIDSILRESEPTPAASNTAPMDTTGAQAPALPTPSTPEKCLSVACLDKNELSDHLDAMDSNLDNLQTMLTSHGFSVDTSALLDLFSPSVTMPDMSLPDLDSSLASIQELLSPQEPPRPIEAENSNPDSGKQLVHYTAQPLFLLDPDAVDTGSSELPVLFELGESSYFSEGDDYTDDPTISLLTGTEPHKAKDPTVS
# Paired box protein Pax-8 = Paired box protein Pax-8 (Homo sapiens, UniProt Q06710); assay: PAX8 transcriptional activity inhibition in RMG-I – RMG-I cells, luciferase, cherry-pick, dose response (AID 687027); format: functional, cell-based;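 further: luciferase reporter driven by Pax8 target thyroperoxidase promoter measured by SteadyGlo luminescence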
# Sequence of Paired box protein Pax-8 (Q06710 whole entry, the tested form may be a part): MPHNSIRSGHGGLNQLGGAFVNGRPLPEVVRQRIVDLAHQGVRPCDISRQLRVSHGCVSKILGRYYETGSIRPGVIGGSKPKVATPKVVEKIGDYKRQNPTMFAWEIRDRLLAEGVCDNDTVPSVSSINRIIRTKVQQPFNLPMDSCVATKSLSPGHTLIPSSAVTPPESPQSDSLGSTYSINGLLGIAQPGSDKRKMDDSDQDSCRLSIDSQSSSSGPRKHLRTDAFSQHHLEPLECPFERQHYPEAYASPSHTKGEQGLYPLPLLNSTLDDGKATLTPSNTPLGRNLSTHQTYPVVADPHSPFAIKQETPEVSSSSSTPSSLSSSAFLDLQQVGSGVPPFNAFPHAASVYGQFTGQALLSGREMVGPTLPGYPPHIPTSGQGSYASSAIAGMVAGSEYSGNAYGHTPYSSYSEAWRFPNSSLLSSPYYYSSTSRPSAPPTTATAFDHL
# [11] = blockers of HIV-1 ZM109 envelope-driven cell-cell fusion – HeLa effector, CEM target cells, luciferase, cherry-pick, dose response (AID 652058); format: functional, cell-based;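 further: luciferase signal from HIV-1 Env mediated cell-cell fusion of effector and target cells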
# [12] = blockers of HIV-1 envelope-mediated cell-cell fusion – cherry-pick, dose response (AID 652057); format: functional, cell-based
structure (smiles),measurement,setting,value
CCn1cc(Cl)c(C(=O)N2N=C(c3ccc4ccccc4c3)CC2c2ccccc2O)n1 (stereo unspecified),EC50,[1],9.18 µM (active)
same,EC50,Streptococcus,> 150 µM (not active)
same,EC50,[2],1.66 µM (active)
same,EC50,Streptokinase A,13 µM (active)
same,EC50,[3],> 60 µM (inconclusive)
CSc1nc2nccc(-c3ccc(-c4ccccc4)cc3)n2n1,EC50,[1],3.79 µM (active)
same,EC50,Streptococcus,23.6 µM (active)
same,EC50,Streptokinase A,> 150 µM (not active)
CCOC(=O)C1CCN(c2nc3cc(OC)ccc3cc2C#N)CC1,EC50,[4],> 53 µM (inactive)
same,IC50,cells,8.59 µM (active)
same,IC50,[5],> 47.1 µM (inactive)
COc1ccc(Nc2nc(N)nc(CN3CCc4ccccc4C3)n2)cc1,EC50,[6],33.2 µM (active)
same,EC50,[7],41.9 µM (active)
Nc1c(Cl)ncnc1N/N=C/c1ccccn1,AC50,INS1,0.521 µM (active)
COCCCN1C(=O)C(O)=C(C(=O)c2ccc(OCC(C)C)cc2C)C1c1cccnc1 (stereo unspecified),EC50,[8],> 38 µM (not active)
same,EC50,[9],> 150 µM (inactive)
CC(C)CN(C(=O)COC(=O)C12CC3CC(CC(Cl)(C3)C1)C2)c1c(N)n(Cc2ccccc2)c(=O)[nH]c1=O,AC50,INS1,7.15 µM (active)
O=C1CCC(/C=C/c2ccccc2)=NN1,EC50,[10],> 260 µM (inactive)
CCC1CCCCN1C(=O)c1cc(COc2ccc(-n3cncn3)cc2)on1 (stereo unspecified),AC50,INS1,8.64 µM (active)
O=C(Cc1nc2ccccc2nc1O)c1ccc(Cl)cc1,EC50,[10],198 µM (inconclusive)
COc1ccc(CCNC(=O)c2c(N)n(CCN3CCOCC3)c3nc4ccccc4nc23)cc1,EC50,[6],18.4 µM (active)
same,EC50,[7],13.4 µM (active)
Cc1ccc(=O)n(C(C(=O)NCc2ccco2)C(=O)c2ccc(F)cc2)c1 (stereo unspecified),EC50,[10],> 260 µM (inactive)
CN(C)S(=O)(=O)Oc1cccc(C(=O)Nc2ccc(Cl)cc2)c1,EC50,[8],1.25 µM (active)
same,EC50,[9],> 160 µM (inactive)
Cc1occc1C(=O)N1CCCC(N2CCN(c3cccc(C(F)(F)F)c3)CC2)C1 (stereo unspecified),AC50,INS1,111 µM (active)
C=CCN1C(=O)NC(c2ccccc2)(C(F)(F)F)S/C1=C(\C#N)c1nnc(N2CCOCC2)n1-c1ccccc1 (stereo unspecified),EC50,[10],22.1 µM (active)
COc1cc(OC)cc(-c2nc3ccccc3c(=O)o2)c1,IC50,cells,8.58 µM (active)
COC(=O)C1=NN(C(=O)c2ccc(Cl)cc2)C(O)(c2ccccc2)C1 (stereo unspecified),EC50,[8],> 38 µM (not active)
same,EC50,[9],29.9 µM (active)
COc1ccccc1-c1cc(-c2ccccc2)nc(SC(C(N)=O)c2ccccc2)c1C#N (stereo unspecified),EC50,[6],7.47 µM (active)
same,EC50,[7],5.97 µM (active)
CCOc1ccc(CN(CCCl)CCCl)cc1C(=O)OC,EC50,[10],12.6 µM (active)
COc1ccc(N(CC(=O)NCCC2=CCCCC2)S(=O)(=O)c2ccccc2)cc1,EC50,[10],> 260 µM (inactive)
c1ccc2c(Nc3nc4c(s3)CCCC4)cccc2c1,EC50,[1],14.4 µM (active)
same,EC50,Streptococcus,> 150 µM (not active)
same,EC50,Streptokinase A,19.6 µM (inconclusive)
CCOc1ccccc1N=C(S)N(Cc1cc2ccc(C)cc2nc1O)CC1CCCN1CC (stereo unspecified),EC50,[6],17.4 µM (active)
same,EC50,[7],20.5 µM (active)
O=C(NC1CCCCC1)c1cc([N+](=O)[O-])n[nH]1,EC50,[8],1.66 µM (active)
same,EC50,[9],154 µM (active)
COCC(=O)Nc1nc2n(n1)C(c1ccccc1Cl)CC(c1ccc(OC)cc1)N2 (stereo unspecified),EC50,[8],> 38 µM (not active)
same,EC50,[9],> 160 µM (inactive)
C[C@H](CO)N1C[C@H](C)[C@H](CN(C)S(=O)(=O)c2cccs2)OCCCC[C@H](C)Oc2ccc(NC(=O)NC3CCCCC3)cc2C1=O,AC50,Paired box protein Pax-8,10.7 µM (active)
Cc1nn2c(O)c3c(nc2c1-c1ccccc1)CCCC3,IC50,cells,11.8 µM (active)
CCOC(=O)CNc1ccc(C(=O)OCC)cc1[N+](=O)[O-],IC50,cells,13.3 µM (active)
CC(=O)c1c(N2CCOCC2)nc2ccc(Br)cc2c1-c1ccccc1,EC50,[10],124 µM (active)
COc1ccc(CCn2c(C)cc(C(=O)COC(=O)c3ccc(NC(=O)CC#N)cc3)c2C)cc1,EC50,[1],61.7 µM (active)
same,EC50,Streptococcus,> 150 µM (not active)
same,EC50,Streptokinase A,> 150 µM (not active)
COc1ccc(NC(=O)Cn2cnc3c(cnn3-c3ccc(C)c(C)c3)c2=O)c(OC)c1,EC50,[6],27.8 µM (active)
same,EC50,[7],29.5 µM (active)
CCCCCc1ccc(-c2cn(CN3C(=O)c4ccccc4C3=O)nn2)cc1,AC50,INS1,1.82 µM (active)
COCCCNC(=O)COC(=O)c1ccc(-c2nc3ccccc3s2)s1,IC50,cells,10.5 µM (active)
C[C@H]1CCCCO[C@H](CN(C)Cc2ccc(C(F)(F)F)cc2)[C@@H](C)CN([C@@H](C)CO)C(=O)c2cc(NC(=O)Nc3ccc(F)cc3)ccc2O1,AC50,Paired box protein Pax-8,10.6 µM (active)
CSCC[C@H](NC(=O)OC(C)(C)C)C(=O)N/N=C/c1cc2ccc(C)cc2nc1Cl,EC50,[6],17.7 µM (active)
same,EC50,[7],18.7 µM (active)
COCCn1c(SCC(=O)NC2CCCCC2)nc2c(c1=O)SCC2,EC50,[10],> 260 µM (inactive)
O=C1NN(c2ccccc2)C(=O)/C1=C\c1ccc2c(c1)OCO2,EC50,[10],> 260 µM (inactive)
CC(=O)OCC1=C(C(=O)O)N2C(=O)C(NC(=O)c3ccc(F)cc3)C2SC1 (stereo unspecified),EC50,[1],3.94 µM (active)
same,EC50,Streptococcus,7.79 µM (active)
same,EC50,Streptokinase A,> 150 µM (not active)
Brc1ccc(-n2cc(-c3ccccc3)c3c(NN4CCOCC4)ncnc32)cc1,AC50,Paired box protein Pax-8,35.8 µM (active)
CCOC(=O)c1c(C)oc2c1c(C(c1ccccc1)N1CCOCC1)c(O)c1ccccc12 (stereo unspecified),EC50,[1],3.16 µM (active)
same,EC50,Streptococcus,5.32 µM (active)
same,EC50,Streptokinase A,0.886 µM (active)
CC1CCN(c2nc(CN3CCCCC3)nc3scc(-c4ccccc4)c23)CC1,EC50,[1],16.9 µM (active)
same,EC50,Streptococcus,> 150 µM (not active)
same,EC50,Streptokinase A,19.1 µM (inconclusive)
O=C(c1ccc(Br)cc1)N1CCCC(c2nc(-c3cccs3)no2)C1 (stereo unspecified),EC50,[10],> 260 µM (inactive)
CCOc1ccccc1NC(=O)N1CCCC(c2nc(O)c3nnn(Cc4ccc(C)cc4)c3n2)C1 (stereo unspecified),EC50,[6],37.4 µM (active)
same,EC50,[7],33.7 µM (active)
COc1ccc(S(=O)(=O)N[C@H]2C=C[C@H](CC(=O)N3CCN(c4ccccc4)CC3)O[C@@H]2CO)cc1,AC50,[11],36.8 µM (active)
same,AC50,[12],26.7 µM (active)
Cc1cccc(-c2ccc([C@H]3[C@H](CO)N4CCCCN(S(=O)(=O)c5ccccc5C)C[C@@H]34)cc2)c1,AC50,Paired box protein Pax-8,11.4 µM (active)
Fc1ccccc1N=C(S)N1CCN(c2ccccn2)CC1,EC50,[10],> 260 µM (inactive)
